# Test results taken from the supplement of paper PMC11208160.
# Assay: recombinant barcode read abundance after kanamycin selection (control-corrected) (log10(CPM+1)); higher = more efficient recombination; sequences stand for … in AGTGCAGAGAAAATCGGCCAGTTTTCTCTGCCTGCAGTCCGCATGCCGT…AGATTTATGCAGCGGACTGCCTTTCTCCCAAAGTGATAAACCGGACAGTATCATGGACCGGTTTTCCCGGTAATCCGTATTTGCAAGGTTGGTTTCACT; site = the 11-nt target
# Summary of the method: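 Duplicate cultures were plated either on chloramphenicol/ampicillin LB agar, serving as control, or on chloramphenicol/ampicillin/kanamycin with 0.1 mM IPTG. These came from a pooled E. coli library co-electroporated with a donor plasmid, each member pairing a target with an IS621 bridge RNA target-binding loop. Recombination efficiency equals averaged, control-corrected counts per million of recombinant-junction barcodes. It is listed as log10(CPM+1).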
# 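Note: IS621 recombinase and bridge RNA in Escherichia coli cells.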
row,Sequence,recombinant barcode read abundance (log10)
1,TACGAGGCTTGGGTTCTAACCTGTTGCCT (site TACGGGGCTAG),0.0616
2,TACGAGGCTTGGGTTCTAACCTGTTGCCT (site TACGTGGCTAG),0.0666
3,TACGCTCCTTGGGTTCTAACCTGTTGCAT (site TACGCTCCTAA),0.053
4,TACGCTCCTTGGGTTCTAACCTGTTGCAT (site TACGCTCCTAC),0.0178
5,TACGCTCCTTGGGTTCTAACCTGTTGCAT (site TACGCTCCTAG),0.284
6,TACGCTCCTTGGGTTCTAACCTGTTGCAT (site TACGCTCCTAT),0.785
7,TACGCTCCTTGGGTTCTAACCTGTTGCTT (site TACGCTCCTAA),0.243
8,TACGCTCCTTGGGTTCTAACCTGTTGCTT (site TACGCTCCTAC),0.176
9,TACGCTCCTTGGGTTCTAACCTGTTGCTT (site TACGCTCCTAG),0.0812
10,TACGCTCCTTGGGTTCTAACCTGTTGCTT (site TACGCTCCTAT),0.017
11,TACTATACTTGGGTTCTAACCTGTTGCCT (site TACTATACTAG),0.181
12,TACTATACTTGGGTTCTAACCTGTTGCCT (site TACTATCCTAG),0.131
13,TACTATACTTGGGTTCTAACCTGTTGCCT (site TACTATGCTAG),0.0468
14,TACTATACTTGGGTTCTAACCTGTTGCCT (site TACTATTCTAG),0.149
15,TACTATCCTTGGGTTCTAACCTGTTGCCT (site TACTATACTAG),0.0496
16,TACTATCCTTGGGTTCTAACCTGTTGCCT (site TACTATCCTAG),0.441

row,Sequence,recombinant barcode read abundance (log10)
1,TACTATCCTTGGGTTCTAACCTGTTGCCT (site TACTATGCTAG),0
2,TACTATCCTTGGGTTCTAACCTGTTGCCT (site TACTATTCTAG),0.162
3,TACTATGCTTGGGTTCTAACCTGTTGCCT (site TACTATACTAG),0.211
4,TACTATGCTTGGGTTCTAACCTGTTGCCT (site TACTATCCTAG),0.163
5,TACTATGCTTGGGTTCTAACCTGTTGCCT (site TACTATGCTAG),1.19
6,TACTATGCTTGGGTTCTAACCTGTTGCCT (site TACTATTCTAG),0.187
7,TACTCCGCTTGGGTTCTAACCTGTTGCCT (site GACTCCGCTAG),0.031
8,TACTCCGCTTGGGTTCTAACCTGTTGCCT (site TACTCCGCTAG),1.02
9,TACTGAGCTTGGGTTCTAACCTGTTGCCT (site CACTGAGCTAG),0.0308
10,TACTGAGCTTGGGTTCTAACCTGTTGCCT (site TACTGAGCTAG),0.52
11,TAGAACTCTTGGGTTCTAACCTGTTGCCT (site TAGAACTCTAG),0.914
12,TAGAACTCTTGGGTTCTAACCTGTTGCCT (site TAGAACTCTCG),0.0641
13,TAGAACTCTTGGGTTCTAACCTGTTGCCT (site TAGAACTCTGG),0.156
14,TAGAACTCTTGGGTTCTAACCTGTTGCCT (site TAGAACTCTTG),0.119
15,TAGAACTCTTGGGTTCTAACCTGTTGCGT (site TAGAACTCTAC),1.07
16,TAGAACTCTTGGGTTCTAACCTGTTGCGT (site TAGAGCTCTAC),0.119
